Laboratory results reported in patent EP2386565A2, “Compounds and methods to inhibit or augment an inflammatory response” (Cambridge Enterprise Ltd., priority 1999, dated 2000).
Non-standard residues stand in square brackets, D forms with d. Residues, ends and D or L forms follow the SMILES beside them. No end group written: not given here. *: point of attachment. Biotin = O=C1N[C@H]2[C@H](CS[C@H]2CCCCC(=O)*)N1

Legend:
[1] = test system: MCP-1 induced THP-1 migration; assay: THP-1 trans-well migration assay, MCP-1 as chemoattractant; assay type: cell-based, human
Experimental: (§1) To determine whether an agent inhibits a chemokine-induced activity, such as macrophage recruitment, varying amounts of the agent are mixed with cells in the presence of a known chemoattractant. For example, a range of known concentrations of an agent, e.g., a chemokine peptide, is incubated with a defined number (e.g., 10^4 - […]) of human THP-1 monocyte cells in individual wells of the top compartment of a trans-well plate. Chemokine (such as MCP-1, MIP1α, IL8 or SDF-1α), at a concentration known to cause significant migration of THP-1 cells in the trans-well migration assay, is placed in the lower compartment (Figure 1). Cells are then incubated at 37°C for a period sufficient to allow migration, e.g., 4 hours. After incubation, the cells are gently removed from the top of the filter with a pipette, 20 µl of 20 mM EDTA in simple PBS is added into each top well, and incubated for 20 minutes at 4°C. The filter is carefully flushed with media using a gentle flow, and removed. A standard curve consisting of a two-fold dilution series of THP-1 cells (in 29 µl) is prepared to accurately quantify the number of cells that have migrated. Migrated cells are stained with 3 µl of MTT stock dye solution which is added directly into each well (5 mg/ml in RPMI-1640 without phenol red, Sigma Chemical Co.) and incubated at 37°C for 4 hours. The media is carefully aspirated from each well, and the converted dye is solubilized by 20 µl of DMSO. Absorbance of converted dye is measured at a wavelength of 595 nm using an ELISA plate reader. The number of migrated cells in each well is then determined by interpolation of the standard curve (see also Imai et al.,J. Biol. Chem., 272, 15036 (1997)).
Any method suitable for counting cells can be used, for example, counting with a hemocytometer, incubation of the cells with MTT (see above), or FACS analysis. A negative control assay is also performed, using TGF-β or another non-chemokine chemoattractant (e.g., IL1β or TNFα). To assess whether the agent is cytotoxic, the same concentrations of agent are incubated with THP-1 cells. Agents which 1) are not cytotoxic at levels which inhibit migration, 2) are ineffective at inhibiting the negative control-induced migration, and 3) reduce or inhibit chemokine-induced THP-1 migration, are agents which fall within the scope of the invention.
For this assay, THP-1 cells were maintained at a density of 4 × 10^5 cells per ml in RPMI-1640 supplemented with 10% fetal calf serum + 20 µM 2-mercaptoethanol. Chemotaxis was induced in a 96-well disposable chemotaxis chamber fitted with a 5 µM polycarbonate filter (PVP free, ChemoTX, Neuroprobe Inc., Cabin John). […] The framed filter was aligned with the holes in the corner of the filter frame and placed over the wells.
(§2) Five × 10^4 THP-1 cells in 25 µl of RPMI-1640 were added to the upper compartment. Peptides were dissolved in Milli Q water and then serially diluted in culture medium. In most cases, the serially diluted peptides were added to the upper compartment of the chemotaxis chamber. The chamber was incubated at 37°C in a humidified atmosphere of 5% CO2 for 4 hours.
After incubation, the cells were gently removed from the top of the filter with a pipette, 20 µl of 20 mM EDTA in PBS was added into each top well, and the mixture was incubated for 20 minutes at 4°C. The filter was then carefully flushed with media using a gentle flow, and removed. A standard curve was prepared to accurately quantify the number of THP-1 cells that had migrated. The curve was based on a two-fold dilution series of THP-1 cells (top standard 100,000 cells in 29 µl). Cells which had migrated, and in separate wells, the cells in the standards, were stained with 3 µl of MTT stock solution which was added directly into each well (5 mg/ml in RPMI 1640 without phenol red, Sigma Chemical Co.) and incubated at 37°C for 4 hours. The media was carefully aspirated from each well, and the converted dye was solubilized by 20 µl of DMSO. […]

[2] = test system: MIP1α induced THP-1 migration; assay: THP-1 trans-well migration assay, MIP1α as chemoattractant; assay type: cell-based, human; conditions: inhibition of THP-1 migration; n.s./ns = not statistically significant
Experimental: as §1
(§3) For this assay, THP-1 cells were maintained at a density of 4 × 10^5 cells per ml in RPMI-1640 supplemented with 10% fetal calf serum + 20 µM 2-mercaptoethanol. Chemotaxis was induced in a 96-well disposable chemotaxis chamber fitted with a 5 µM polycarbonate filter (PVP free, ChemoTX, Neuroprobe Inc., Cabin John). Twenty-nine µl of chemoattractant (recombinant human chemokine; 50 ng/ml, i.e., 5.9 nM) or control (100 ng/ml TGFβ) was added to the lower compartment of each well. The framed filter was aligned with the holes in the corner of the filter frame and placed over the wells.
as §2
(§4) After incubation, the cells were gently removed from the top of the filter with a pipette, 20 µl of 20 mM EDTA in PBS was added into each top well, and the mixture was incubated for 20 minutes at 4°C. The filter was then carefully flushed with media using a gentle flow, and removed. A standard curve was prepared to accurately quantify the number of THP-1 cells that had migrated. The curve was based on a two-fold dilution series of THP-1 cells (top standard 100,000 cells in 29 µl). Cells which had migrated, and in separate wells, the cells in the standards, were stained with 3 µl of MTT stock solution which was added directly into each well (5 mg/ml in RPMI 1640 without phenol red, Sigma Chemical Co.) and incubated at 37°C for 4 hours. The media was carefully aspirated from each well, and the converted dye was solubilized by 20 µl of DMSO. Absorbance of converted dye was measured at a wavelength of 595 nm using an ELISA plate reader. The number of cells that had migrated in each well was determined by interpolation of the standard curve.
(§5) To investigate the receptor specificity of peptide 3 inhibition, the ED50 was determined for peptide 3(1-12)[MCP-1] (SEQ ID NO:1) inhibition of THP-1 migration induced by chemokines which signal through different receptors than MCP-1 receptors. […]

[3] = test system: SDF-1α induced THP-1 migration; assay: THP-1 trans-well migration assay, SDF-1α as chemoattractant; assay type: cell-based, human; conditions: inhibition of THP-1 migration; n.s./ns = not statistically significant
Experimental: as §1, §3, §2, §4, §5

[4] = test system: gp120; conditions: ns = not significant; >100 = ED50 not determined
Experimental: Binding assays. Cells (either Jurkat T-cells or THP-1 cells) were grown in RPMI 1640 medium supplemented with 10% fetal calf serum, 2 mM glutamine, 20 µM β-mercaptoethanol, 100 U/ml penicillin and 100 µg/ml streptomycin and maintained between 2 × 10^5 and 1 × 10^6 cells/ml. Prior to performing a binding assay, cells were spun out (100 × g; 4 minutes) and washed 3 times in ice-cold PBS. A volume of cell suspension in PBS containing 10^6 cells (for Jurkat cells) or 4 × 10^5 cells (for THP-1 cells) was pipetted into each well of a V-bottom 96-well plate (Gibco BRL) and spun out (100 x g; 4 minutes). Triplicate wells were then resuspended in 100 µl binding medium (PBS pH 7.2 containing 0.1% fatty acid-free bovine serum albumin (BSA)) containing labeled peptide in the presence or absence of various concentrations of unlabeled peptide. The plate was then incubated on ice for 90 minutes. Cells were washed 3 times with 380 µl of ice-cold PBS, spinning out the cells each time (100 × g; 4 minutes), and resuspended in 100 µl binding medium containing streptavidin-peroxidase (Amersham International) at 1:1000 dilution. Cells were incubated for a further 15 minutes on ice to allow labeling of any bound biotinylated peptide, then washed 4 times as above. Cells were then incubated with 200 µl TMB substrate (K-Blue, Bionostics) for 20 minutes at room temperature, and the reaction stopped by addition of 50 µl 2 M HCl. The plate was spun (3,000 × g; 3 minutes) and 200 µl of the colored product was transferred to an empty 96-well ELISA plate and the absorbance at 450 nm determined. For each assay, the absorbance of a blank reaction (no peptide added) was subtracted from all readings before further analysis.
Binding experiments with labeled peptide 2 were performed with 10 nM labeled peptide in each reaction.

[5] = test system: HIV; assay type: cell-based; conditions: ns = not significant
[6] = Pharmacokinetics of radiolabeled D-ala peptide after IV or SQ bolus; assay type: in vivo, mice
Experimental: When ^3H-D-ala peptide 3(1-12)[MCP-1] (^3H-D-ala was attached to Asp) was given as an intravenous (IV) or subcutaneous (SQ) bolus to mice, peak serum concentrations were reached within 1 hour. This radiolabeled peptide was rapidly excreted (approximately 4 hours), primarily via the kidney. […] Direct comparison of ^3H-D-ala peptide 3(1-12)[MCP-1] (no DARC binding and rapidly cleared) and CRD-L-Leu4Ile11Cys13peptide 3(3-12)[MCP-1]

[7] = test system: recombinant human chemokine receptors; assay: Binding of biotin-labeled peptide to parental and chemokine receptor expressing HOS and CHO lines (125I-streptavidin); conditions: labeled peptide at 10 µM
Text: HOS parental cells and CCR1-5 and CXCR4 transformants were obtained from the AIDS Reagent Program and were maintained as described on the supplier data sheet. Selection for the chemokine receptor-expressing plasmid was maintained throughout culture. CHO parental cells and CXCR1 and CXCR2 transformants were obtained form Dr. J. Navarro (Southwestern University, TX, USA) and maintained as described by the supplier under constant selection for expression of the chemokine receptor. All cells were split at about a 1:10 dilution approximately every 4 days, releasing the cells with EDTA solution and reseeding at known density. […]
The binding of labeled peptide 2 and labeled peptide 3 to the parental HOS, parental CHO and 8 chemokine receptor expressing lines was compared. […] The amount of streptavidin molecules added was calculated in each case to be approximately 50-fold in excess over the number of chemokine receptor sites. […]
To determine whether this apparent binding of peptide 2 was cell dependent, or whether it was binding to the plastic (or the some component of the fetal calf serum used during the cell culture), the following experiment was conducted. Three plates were evaluated: One had HOS parental cells, another had CCR5 over-expressors and the third had no cells but was incubated with the FCS-containing culture medium. […]

Compound: CC[C@@H](C)[C@@H](NC(=O)[C@H](NC(=O)[C@@H](CO)NC(=O)[C@@H](CO)NC(=O)[C@@H](CCCCN)NC(=O)[C@@H](CO)NC(=O)[C@H]1CCCN1C(=O)[C@@H](CCCCN)NC(=O)[C@@H](CCC(=O)O)NC(=O)[C@@H](C)NC(=O)[C@H](NC(=O)[C@H](N)CS)C(C)C)[C@H](C)O)C(=O)N[C@H](CCCNC(=N)N)C(=O)N[C@H](CCCNC(=N)N)C(=O)N[C@H](Cc1ccc(O)cc1)C(=O)N[C@H](CO)C(=O)N[C@H](CS)C(=O)O [cvaekpsksstirrysc] (H-[dC][dV][dA][dE][dK][dP][dS][dK][dS][dS][dT][dI][dR][dR][dY][dS][dC]-OH; N-terminus and C-terminus assumed)
- ED50 (µM) versus MCP-1 ([1]; inhibition of THP-1 migration, n.s./ns = not statistically significant): ns
- ED50 (µM) versus MIP1α [2]: ns
- ED50 (µM) versus SDF-1α [3]: ns
- gp120 ED-50 (µM) [4]: ns
- % virus inhibition [5]: ns

Compound: ^3H-D-ala peptide 3(1-12)[MCP-1]: ^3H-D-ala was attached to Asp (EICAD(3H‑D‑Ala)PKQKWVQ; not fully specified)
- time of excretion, primarily via the kidney [6]: approximately 4 hours
- time to peak serum concentrations [6]: ≤ 1 h

Compound: labeled peptide: N-terminal biotin conjugate of the sequence n'-CLDPKQKWIQC-c' (Biotin-CLDPKQKWIQC; cysteine pairing not given here)
- ED50 for inhibition of MCP-1 induced migration ([1]; MCP-1 at 100 ng/ml in RPMI 1640 + 10% FCS, 4 hours, 5 µm filter): about 4 µM
- binding to parental and chemokine receptor expressing cell lines (in words) [7]: No detectable binding
